Key:
Candida albicans [1] = experiment: Antifungal activity against Candida albicans DSY2621 by MTT assay; format: functional
Candida albicans [2] = experiment: Antifungal activity against wild type Candida albicans CAF2-1 by MTT assay; format: functional

| Structure (SMILES) | MIC (Candida albicans [1]) [µg] | MIC (Candida albicans [2]) [µg] |
| --- | --- | --- |
| COc1cccc2c3c(c(=O)[nH]c12)C=CC(C)(C)O3 | 15 | – |
| CC1(C)C=Cc2c(O)nc3ccccc3c2O1 [FLINDERSINE] | 15 | – |
| Clc1ccc(COC(Cn2ccnc2)c2ccc(Cl)cc2Cl)c(Cl)c1 (centres undefined) [MICONAZOLE] | 0.0006 | 0.0006 |
